SMILES strings stand for the structures.

This experiment addresses recombinant human NUDT5 (Homo sapiens, UniProt Q9UKK9). In words: NUDT5 inhibitor activity by malachite green reporter assay. In kind it is biochemical. Particulars: Table 4; 6 nM NUDT5, 50 μM ADP-Ribose, 15 minutes at room temperature. An outline of the steps:
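Coupled ADP-ribose hydrolysis in 10 mM Tris-acetate pH 8.0, 40 mM NaCl, 10 mM Mg acetate, 0.005% Tween-20, 1 mM DTT: 6 nM NUDT5, 50 μM ADP-Ribose, 10 U/ml alkaline phosphatase, 15 min at room temperature. Pi read by malachite green at 630 nm; compounds 100 μM–1.7 nM, 3-fold; IC50 by curve fit.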
A general note: Reporter assays use an easily measured gene product as a stand-in for the process of interest.

For the compound `Cc1cc(-c2nnc(Cn3c(Cl)nc4c3c(=O)n(C)c(=O)n4C)o2)ccc1Cl` [Example 97, 8-chloro-7-{[5-(4-chloro-3-methylphenyl)-1,3,4-oxadiazol-2-yl]methyl}-1,3-dimethyl-2,3,6,7-tetrahydro-1H-purine-2,6-dione], the IC50 was found to be 64.8 nM.

As to `COc1cc(-c2nnc(Cn3c(Cl)nc4c3c(=O)n(C)c(=O)n4C)o2)ccc1Cl` [Example 98, 8-chloro-7-{[5-(4-chloro-3-methoxyphenyl)-1,3,4-oxadiazol-2-yl]methyl}-1,3-dimethyl-2,3,6,7-tetrahydro-1H-purine-2,6-dione], the concentration for half-maximal inhibition (IC50) was 378 nM.

On to `COc1ccc(-c2nnc(Cn3c(Cl)nc4c3c(=O)n(C)c(=O)n4C)o2)cc1Cl` [Example 99, 8-chloro-7-{[5-(3-chloro-4-methoxyphenyl)-1,3,4-oxadiazol-2-yl]methyl}-1,3-dimethyl-2,3,6,7-tetrahydro-1H-purine-2,6-dione], for which the IC50 was determined as 73 nM.

Regarding `Cn1c(=O)c2c(nc(N3CCN(C(=O)OC(C)(C)C)CC3)n2Cc2nnc(-c3ccc([N+](=O)[O-])cc3)o2)n(C)c1=O` [Example 100, tert-butyl 4-(1,3-dimethyl-7-{[5-(4-nitrophenyl)-1,3,4-oxadiazol-2-yl]methyl}-2,6-dioxo-2,3,6,7-tetrahydro-1H-purin-8-yl)piperazine-1-carboxylate], the 50% inhibitory concentration (IC50) amounted to 9440 nM.

In the case of `Cn1c(=O)c2c(nc(Cl)n2Cc2nnc(-c3ccc4cc[nH]c4c3)o2)n(C)c1=O` [Example 101, 8-chloro-7-{[5-(1H-indol-6-yl)-1,3,4-oxadiazol-2-yl]methyl}-1,3-dimethyl-2,3,6,7-tetrahydro-1H-purine-2,6-dione], the half-maximal inhibitory concentration (IC50) came out at 358 nM.

Consider `Cn1c(=O)c2c(nc(Cl)n2Cc2nnc(-c3ccc(C(F)(F)F)cc3)o2)n(C)c1=O` [Example 102, 8-chloro-1,3-dimethyl-7-({5-[4-(trifluoromethyl)phenyl]-1,3,4-oxadiazol-2-yl}methyl)-2,3,6,7-tetrahydro-1H-purine-2,6-dione], for which the IC50 came to 484 nM.

Turning to `Cn1c(=O)c2c(nc(Cl)n2Cc2nnc(-c3ccc(CS(C)(=O)=O)cc3)o2)n(C)c1=O` [Example 103, 8-chloro-7-({5-[4-(methanesulfonylmethyl)phenyl]-1,3,4-oxadiazol-2-yl}methyl)-1,3-dimethyl-2,3,6,7-tetrahydro-1H-purine-2,6-dione], the IC50 stood at 61600 nM.

Consider `COc1ccc(-c2nnc(Cn3c(Cl)nc4c3c(=O)n(C)c(=O)n4C)o2)cc1OC` [Example 104, 8-chloro-7-{[5-(3,4-dimethoxyphenyl)-1,3,4-oxadiazol-2-yl]methyl}-1,3-dimethyl-2,3,6,7-tetrahydro-1H-purine-2,6-dione], for which the half-maximal inhibitory concentration (IC50) was > 100000 nM.

In the case of `Cn1c(=O)c2c(nc(N3CCN(C(=O)OC(C)(C)C)CC3)n2Cc2nnc(-c3ccc(N)cc3)o2)n(C)c1=O` [Example 105, tert-butyl 4-(7-{[5-(4-aminophenyl)-1,3,4-oxadiazol-2-yl]methyl}-1,3-dimethyl-2,6-dioxo-2,3,6,7-tetrahydro-1H-purin-8-yl)piperazine-1-carboxylate], the half-inhibitory concentration (IC50) came to 24500 nM.

As to `Cc1ccc(-c2nnc(Cn3c(Cl)nc4c3c(=O)n(C)c(=O)n4C)o2)cn1` [Example 106, 8-chloro-1,3-dimethyl-7-{[5-(6-methylpyridin-3-yl)-1,3,4-oxadiazol-2-yl]methyl}-2,3,6,7-tetrahydro-1H-purine-2,6-dione], the IC50 amounted to 2920 nM.

`Cn1c(=O)c2c(nc(N3CCNCC3)n2Cc2nnc(-c3ccccc3)o2)n(C)c1=O` [Example 107, 1,3-dimethyl-7-[(5-phenyl-1,3,4-oxadiazol-2-yl)methyl]-8-(piperazin-1-yl)-2,3,6,7-tetrahydro-1H-purine-2,6-dione]: the IC50 stood at 212 nM.

Regarding `Cn1c(=O)c2c(nc(N3CCNCC3)n2Cc2nnc(-c3ccc(Cl)cc3)o2)n(C)c1=O` [Example 108, 7-{[5-(4-chlorophenyl)-1,3,4-oxadiazol-2-yl]methyl}-1,3-dimethyl-8-(piperazin-1-yl)-2,3,6,7-tetrahydro-1H-purine-2,6-dione], the half-inhibitory concentration (IC50) is 99 nM.

`Cn1c(=O)c2c(nc(N3CCNCC3)n2Cc2nnc(-c3ccc(F)cc3)o2)n(C)c1=O` [Example 109, 7-{[5-(4-fluorophenyl)-1,3,4-oxadiazol-2-yl]methyl}-1,3-dimethyl-8-(piperazin-1-yl)-2,3,6,7-tetrahydro-1H-purine-2,6-dione]: the half-maximal inhibitory concentration (IC50) was 345 nM.

For the compound `Cn1c(=O)c2c(nc(N3CCNCC3)n2Cc2nnc(-c3cccc(F)c3)o2)n(C)c1=O` [Example 110, 7-{[5-(3-fluorophenyl)-1,3,4-oxadiazol-2-yl]methyl}-1,3-dimethyl-8-(piperazin-1-yl)-2,3,6,7-tetrahydro-1H-purine-2,6-dione], the IC50 was found to be 129 nM.

Take `COc1cccc(-c2nnc(Cn3c(N4CCNCC4)nc4c3c(=O)n(C)c(=O)n4C)o2)c1` [Example 111, 7-{[5-(3-methoxyphenyl)-1,3,4-oxadiazol-2-yl]methyl}-1,3-dimethyl-8-(piperazin-1-yl)-2,3,6,7-tetrahydro-1H-purine-2,6-dione]: the IC50 is 119 nM.

With `Cn1c(=O)c2c(nc(N3CCNCC3)n2Cc2nnc(-c3ccc(C#N)cc3)o2)n(C)c1=O` [Example 112], the IC50 worked out at 255 nM.

As to `Cn1c(=O)c2c(nc(N3CCNCC3)n2Cc2nnc(-c3cccnc3)o2)n(C)c1=O` [Example 113, 1,3-dimethyl-8-(piperazin-1-yl)-7-{[5-(pyridin-3-yl)-1,3,4-oxadiazol-2-yl]methyl}-2,3,6,7-tetrahydro-1H-purine-2,6-dione], the IC50 stood at 1690 nM.

As for `Cn1c(=O)c2c(nc(N3CCNCC3)n2Cc2nnc(-c3ccc(N4CCNCC4)nc3)o2)n(C)c1=O` [Example 114, 1,3-dimethyl-8-(piperazin-1-yl)-7-({5-[6-(piperazin-1-yl)pyridin-3-yl]-1,3,4-oxadiazol-2-yl}methyl)-2,3,6,7-tetrahydro-1H-purine-2,6-dione], the IC50 came to 29000 nM.

Consider `Cn1c(=O)c2c(nc(N3CCNCC3)n2Cc2nnc(-c3ccc([N+](=O)[O-])cc3)o2)n(C)c1=O` [Example 115, 1,3-dimethyl-7-{[5-(4-nitrophenyl)-1,3,4-oxadiazol-2-yl]methyl}-8-(piperazin-1-yl)-2,3,6,7-tetrahydro-1H-purine-2,6-dione], for which the IC50 was 286 nM.

As for `Cc1cc(-c2nnc(Cn3c(N4CCNCC4)nc4c3c(=O)n(C)c(=O)n4C)o2)ccc1Cl` [Example 116, 7-{[5-(4-chloro-3-methylphenyl)-1,3,4-oxadiazol-2-yl]methyl}-1,3-dimethyl-8-(piperazin-1-yl)-2,3,6,7-tetrahydro-1H-purine-2,6-dione], the IC50 is 21.6 nM.

Take `COc1cc(-c2nnc(Cn3c(N4CCNCC4)nc4c3c(=O)n(C)c(=O)n4C)o2)ccc1Cl` [Example 117, 7-{[5-(4-chloro-3-methoxyphenyl)-1,3,4-oxadiazol-2-yl]methyl}-1,3-dimethyl-8-(piperazin-1-yl)-2,3,6,7-tetrahydro-1H-purine-2,6-dione]: the IC50 amounted to 64.2 nM.

Regarding `COc1ccc(-c2nnc(Cn3c(N4CCNCC4)nc4c3c(=O)n(C)c(=O)n4C)o2)cc1Cl` [Example 118, 7-{[5-(3-chloro-4-methoxyphenyl)-1,3,4-oxadiazol-2-yl]methyl}-1,3-dimethyl-8-(piperazin-1-yl)-2,3,6,7-tetrahydro-1H-purine-2,6-dione], the IC50 stood at 17.4 nM.

Broadly, the IC50 is the concentration at which inhibition is half-maximal.

The values are drawn from patent US20210128566A1, “NOVEL FUNCTIONALIZED PURINE-2,6-DIONES AND THEIR USE IN MEDICINE” (THOMAS HELLEDAYS STIFTELSE FÖR MEDICINSK FORSKNING, priority 2017, published 2021).
